According to PubChem BioAssay (NCI):
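Cultured in 96-well plates, cells were exposed to test compound for 48 hours across five concentrations. TGI denotes the concentration required for complete inhibition of growth.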

Columns and labels:
Test in all cases: inhibition of tumour cell growth, NCI panel, 48 h
786-0 renal = system: 786-0 renal
A498 renal = system: A498 renal
A549 NSCLC = system: A549 NSCLC
ACHN renal = system: ACHN renal
BT-549 breast = system: BT-549 breast
CAKI-1 renal = system: CAKI-1 renal
CCRF-CEM leukemia = system: CCRF-CEM leukemia
COLO 205 colon = system: COLO 205 colon
DU-145 prostate = system: DU-145 prostate
EKVX NSCLC = system: EKVX NSCLC
HCC-2998 colon = system: HCC-2998 colon
HCT-116 colon = system: HCT-116 colon
HCT-15 colon = system: HCT-15 colon
HOP-62 NSCLC = system: HOP-62 NSCLC
HS 578T breast = system: HS 578T breast
HT29 colon = system: HT29 colon
IGROV1 ovarian = system: IGROV1 ovarian
KM12 colon = system: KM12 colon
LOX IMVI melanoma = system: LOX IMVI melanoma
M14 melanoma = system: M14 melanoma
MALME-3M melanoma = system: MALME-3M melanoma
MCF7 breast = system: MCF7 breast
MDA-MB-231 breast = system: MDA-MB-231 breast
MDA-MB-435 = system: MDA-MB-435
MDA-N = system: MDA-N
MOLT-4 leukemia = system: MOLT-4 leukemia
NCI-H226 lung = system: NCI-H226 lung
NCI-H460 lung = system: NCI-H460 lung
NCI-H522 lung = system: NCI-H522 lung
NCI/ADR-RES ovarian = system: NCI/ADR-RES ovarian
OVCAR-3 ovarian = system: OVCAR-3 ovarian
OVCAR-4 ovarian = system: OVCAR-4 ovarian
OVCAR-5 ovarian = system: OVCAR-5 ovarian
OVCAR-8 ovarian = system: OVCAR-8 ovarian
PC-3 prostate = system: PC-3 prostate
RPMI-8226 leukemia = system: RPMI-8226 leukemia
RXF 393 renal = system: RXF 393 renal
SF-268 CNS = system: SF-268 CNS
SF-295 CNS = system: SF-295 CNS
SK-MEL-2 melanoma = system: SK-MEL-2 melanoma
SK-MEL-28 melanoma = system: SK-MEL-28 melanoma
SK-MEL-5 melanoma = system: SK-MEL-5 melanoma
SK-OV-3 ovarian = system: SK-OV-3 ovarian
SN12C renal = system: SN12C renal
SNB-19 CNS = system: SNB-19 CNS
SNB-75 CNS = system: SNB-75 CNS
SR leukemia = system: SR leukemia
SW-620 colon = system: SW-620 colon
T-47D breast = system: T-47D breast
TK-10 renal = system: TK-10 renal
U251 CNS = system: U251 CNS
UACC-257 melanoma = system: UACC-257 melanoma
UACC-62 melanoma = system: UACC-62 melanoma
UO-31 renal = system: UO-31 renal
HL-60(TB) leukemia = system: HL-60(TB) leukemia
K-562 leukemia = system: K-562 leukemia
NCI-H23 lung = system: NCI-H23 lung
SF-539 CNS = system: SF-539 CNS

Measured: TGI

O=C1c2scc(-c3ccccc3)c2-n2cccc21
36 µM: SF-295 CNS
27.2 µM: SNB-75 CNS
28.8 µM: SK-MEL-28 melanoma
30 µM: SK-MEL-5 melanoma
59.5 µM: HCC-2998 colon
80.9 µM: T-47D breast
31.7 µM: COLO 205 colon
25.3 µM: HT29 colon
33.3 µM: M14 melanoma
38.1 µM: HOP-62 NSCLC | OVCAR-3 ovarian
27.9 µM: LOX IMVI melanoma
5.02 µM: A498 renal
29.9 µM: RXF 393 renal
30.3 µM: SF-268 CNS
25.4 µM: EKVX NSCLC
24 µM: HS 578T breast
31.4 µM: MDA-MB-231 breast
29 µM: MDA-MB-435
47.2 µM: SR leukemia
25 µM: NCI-H226 lung
34.1 µM: RPMI-8226 leukemia | SW-620 colon
31.9 µM: CAKI-1 renal
28 µM: 786-0 renal
44.7 µM: SK-OV-3 ovarian
27.4 µM: OVCAR-8 ovarian
42 µM: SNB-19 CNS
30.7 µM: MALME-3M melanoma | SK-MEL-2 melanoma
50 µM: MDA-N
26.2 µM: HCT-116 colon
17.7 µM: IGROV1 ovarian
25.2 µM: NCI-H522 lung
41.2 µM: PC-3 prostate
48 µM: OVCAR-5 ovarian
60.8 µM: CCRF-CEM leukemia
27.7 µM: U251 CNS
74.8 µM: SN12C renal
55.6 µM: UACC-62 melanoma
42.6 µM: A549 NSCLC
35.4 µM: NCI/ADR-RES ovarian
52.9 µM: MCF7 breast
27.3 µM: KM12 colon
37.9 µM: MOLT-4 leukemia
not listed: HL-60(TB) leukemia | K-562 leukemia | NCI-H23 lung | SF-539 CNS
> 100 µM: all other assays above

c1ccc(NNC2=NCCN2)cc1
not listed: HCC-2998 colon | MALME-3M melanoma | RXF 393 renal
> 100 µM: all other assays above

CCOC(=O)C1(Cc2ccc3c(c2)CCC3)Cc2cc3c(cc2C1=O)CCC3 (stereo unspecified)
> 78.7 µM: A498 renal
7.07 µM: HL-60(TB) leukemia
not listed: RXF 393 renal
> 100 µM: all other assays above
